System: Staphylococcus aureus
Test: Agar-well method: growth inhibition of the indicator strain
Assay type: cell-based
Conditions: 130 μl in agar well, read-out: Radius of inhibition zone
Protocol: A parent strain, streptomyces filamentosus ATCC 31568 was cultured by slant culture at 30° C. for 12 days to collect spores, and then the spores were suspended in a physiological saline, followed by serial dilution of 10^−2, 10^−3, and 10^−4, and plating on plate media. After pre-incubation at 30° C. for 2 hours, the plates were irradiated for 118 seconds in a glove box placed at a distance of 65 cm from two 20 W UV bulbs of 280 nm wavelength. In this regard, the death rate was 99.9%. […] Colonies that survived on the agar plates at 30° C. for 6 days were collected, followed by seed culture and fermentation culture according to a method of the following Example 4. Fermentation was performed using a 500 ml-baffled flask in a shaking incubator under conditions of 30° C., 260 rpm for 7 days.
After completion of the culture, the culture broth was centrifuged. An agar-well method which is a biological detection method was used in order to examine growth inhibition of an indicator strain, Staphylococcus aureus. The agar-well method was applied to the analysis, because this method is an easy and simple method with lower errors, compared to other methods. This method is based on a principle that a diffusion rate is determined by a difference in a concentration gradient upon diffusion of a sample on an agar gel, and the radius of inhibition zone for a predetermined time is known to be proportional to the log of the concentration value. Based on this principle, antibiotic concentrations in unknown samples can be measured. This method was performed by the following procedure: before a trypticase soy broth agar medium solidified, the indicator strain Staphylococcus aureus was added thereto and uniformly suspended therein. The medium was poured into a […] and allowed to solidify. Next, wells were punched into the agar using a stainless steel borer having a diameter of 5 mm, and agar in the well was suctioned by vacuum aspiration. The amount of the sample in the agar well was 130 μl, and a control group daptomycin was prepared and used in an amount of 0, 50, 100, 200, 300, and 1000 μg/ml.

Structure (SMILES): CCCCCCCCCC(=O)N[C@@H](Cc1c[nH]c2ccccc12)C(=O)N[C@H](CC(N)=O)C(=O)N[C@@H](CC(=O)O)C(=O)N[C@@H]1C(=O)NCC(=O)N[C@@H](CCCN)C(=O)N[C@@H](CC(=O)O)C(=O)N[C@H](C)C(=O)N[C@@H](CC(=O)O)C(=O)NCC(=O)N[C@H](CO)C(=O)N[C@@H]([C@H](C)CC(=O)O)C(=O)N[C@@H](CC(=O)c2ccccc2N)C(=O)O[C@@H]1C [Daptomycin, daptomycin]
- zone of inhibition at 50 µg/mL (Daptomycin control 0.05 mg/ml): 8.6 mm
- zone of inhibition at 100 µg/mL (Daptomycin control 0.10 mg/ml): 10.6 mm
- zone of inhibition at 200 µg/mL (Daptomycin control 0.20 mg/ml): 12 mm
- zone of inhibition at 300 µg/mL (Daptomycin control 0.30 mg/ml): 13.2 mm
- zone of inhibition at 1000 µg/mL (Daptomycin control 1.00 mg/ml): 16 mm
